For three molecules, IC50 results are on record in ChEMBL document CHEMBL1649312, “Absence of association between piperaquine in vitro responses and polymorphisms in the pfcrt, pfmdr1, pfmrp, and pfnhe genes in Plasmodium falciparum” (Antimicrob Agents Chemother, 2010).

Common to all, as to assay type: functional, organism-based
Experiment [1] has as its system Plasmodium falciparum. Put plainly: Antimalarial activity against Plasmodium falciparum D6 assessed as inhibition of [3H] incorporation after 48 hrs by scintillation counter.
Experiment [2] concerns Plasmodium falciparum. Put plainly: Antimalarial activity against Plasmodium falciparum IMT 10354 assessed as inhibition of [3H] incorporation after 48 hrs by scintillation counter.
Experiment [3] relates to Plasmodium falciparum. Put plainly: Antimalarial activity against Plasmodium falciparum IMT 16332 assessed as inhibition of [3H] incorporation after 48 hrs by scintillation counter.
Experiment [4] has as its system Plasmodium falciparum. Put plainly: Antimalarial activity against Plasmodium falciparum IMT 8425 assessed as inhibition of [3H] incorporation after 48 hrs by scintillation counter.
Experiment [5] deals with Plasmodium falciparum. Nature of the experiment: Antimalarial activity against Plasmodium falciparum 106/1 assessed as inhibition of [3H] incorporation after 48 hrs by scintillation counter.
Experiment [6] concerns Plasmodium falciparum. Nature of the experiment: Antimalarial activity against Plasmodium falciparum 3D7 assessed as inhibition of [3H] incorporation after 48 hrs by scintillation counter.
Experiment [7] concerns Plasmodium falciparum. Nature of the experiment: Antimalarial activity against Plasmodium falciparum IMT 31 assessed as inhibition of [3H] incorporation after 48 hrs by scintillation counter.
For experiment [8], the system named is Plasmodium falciparum. Put plainly: Antimalarial activity against Plasmodium falciparum IMT K2 assessed as inhibition of [3H] incorporation after 48 hrs by scintillation counter.
In experiment [9] the test system is Plasmodium falciparum. Put plainly: Antimalarial activity against Plasmodium falciparum IMT K4 assessed as inhibition of [3H] incorporation after 48 hrs by scintillation counter.
Experiment [10] has as its system Plasmodium falciparum. Put plainly: Antimalarial activity against Plasmodium falciparum IMT Bres assessed as inhibition of [3H] incorporation after 48 hrs by scintillation counter.
Experiment [11] concerns Plasmodium falciparum. Put plainly: Antimalarial activity against Plasmodium falciparum IMT K14 assessed as inhibition of [3H] incorporation after 48 hrs by scintillation counter.
The test system of experiment [12] is Plasmodium falciparum. Put plainly: Antimalarial activity against Plasmodium falciparum IMT Guy assessed as inhibition of [3H] incorporation after 48 hrs by scintillation counter.
The test system of experiment [13] is Plasmodium falciparum. Nature of the experiment: Antimalarial activity against Plasmodium falciparum FCM29 assessed as inhibition of [3H] incorporation after 48 hrs by scintillation counter.
Experiment [14] deals with Plasmodium falciparum. Nature of the experiment: Antimalarial activity against Plasmodium falciparum IMT 9881 assessed as inhibition of [3H] incorporation after 48 hrs by scintillation counter.
Experiment [15] concerns Plasmodium falciparum. Put plainly: Antimalarial activity against Plasmodium falciparum IMT A4 assessed as inhibition of [3H] incorporation after 48 hrs by scintillation counter.
The subject of experiment [16] is Plasmodium falciparum. Nature of the experiment: Antimalarial activity against Plasmodium falciparum IMT Vol assessed as inhibition of [3H] incorporation after 48 hrs by scintillation counter.
Experiment [17] relates to Plasmodium falciparum. Put plainly: Antimalarial activity against Plasmodium falciparum HB3 assessed as inhibition of [3H] incorporation after 48 hrs by scintillation counter.
Experiment [18] concerns Plasmodium falciparum. Put plainly: Antimalarial activity against Plasmodium falciparum PA assessed as inhibition of [3H] incorporation after 48 hrs by scintillation counter.
Experiment [19] concerns Plasmodium falciparum. Put plainly: Antimalarial activity against Plasmodium falciparum IMT 10500 assessed as inhibition of [3H] incorporation after 48 hrs by scintillation counter.
In experiment [20] the test system is Plasmodium falciparum. Nature of the experiment: Antimalarial activity against Plasmodium falciparum IMT L1 assessed as inhibition of [3H] incorporation after 48 hrs by scintillation counter.
For experiment [21], the system named is Plasmodium falciparum. Nature of the experiment: Antimalarial activity against Plasmodium falciparum W2 assessed as inhibition of [3H] incorporation after 48 hrs by scintillation counter.

A word on the IC50: it is the concentration at which inhibition is half-maximal.

In the case of `C=C[C@H]1CN2CC[C@H]1C[C@H]2[C@H](O)c1ccnc2ccc(OC)cc12` [QUININE], the IC50 in the experiment with Plasmodium falciparum [1] was 48 nM; with Plasmodium falciparum [2], 118 nM; in the experiment on Plasmodium falciparum [3], 240 nM; with Plasmodium falciparum [4], 138 nM; in the experiment with Plasmodium falciparum [5], 135 nM; in the experiment with Plasmodium falciparum [6] it was 134 nM. Besides, the IC50 in the experiment on Plasmodium falciparum [7] is 272 nM; in the experiment with Plasmodium falciparum [8], 607 nM; in the experiment on Plasmodium falciparum [9], 953 nM; with Plasmodium falciparum [10], 604 nM; in the experiment on Plasmodium falciparum [11], 969 nM; with Plasmodium falciparum [12], 322 nM.

Turning to `C[C@H]1c2cccc(O)c2C(=O)C2=C(O)[C@]3(O)C(=O)C(C(N)=O)=C(O)[C@@H](N(C)C)[C@@H]3[C@@H](O)[C@@H]21` [DOXYCYCLINE], the IC50 turned out to be 11600 nM in the experiment on Plasmodium falciparum [13]; 4600 nM in the experiment on Plasmodium falciparum [2]; 8700 nM in the experiment with Plasmodium falciparum [14]; 13700 nM with Plasmodium falciparum [3]; 10900 nM with Plasmodium falciparum [4]; 9200 nM with Plasmodium falciparum [15]. Further, the IC50 in the experiment on Plasmodium falciparum [16] stood at 9100 nM; with Plasmodium falciparum [9] it was 10200 nM; in the experiment on Plasmodium falciparum [11] it was 11500 nM.

For `CCNCc1cc(Nc2ccnc3cc(Cl)ccc23)ccc1O` [DESETHYL AMODIAQUINE], the 50% inhibitory concentration (IC50) in the experiment on Plasmodium falciparum [1] amounted to 23 nM; in the experiment on Plasmodium falciparum [17], 32 nM; in the experiment on Plasmodium falciparum [18], 119 nM; in the experiment with Plasmodium falciparum [13] it was 314 nM; in the experiment with Plasmodium falciparum [2], 20 nM; in the experiment on Plasmodium falciparum [14], 34 nM. Moreover, the IC50 in the experiment on Plasmodium falciparum [3] turned out to be 52 nM; in the experiment on Plasmodium falciparum [4] it was 27 nM; with Plasmodium falciparum [5], 32 nM; in the experiment with Plasmodium falciparum [19] it was 40 nM; in the experiment on Plasmodium falciparum [6], 26 nM; in the experiment on Plasmodium falciparum [15], 123 nM. Further, the IC50 in the experiment with Plasmodium falciparum [20] came out at 85 nM; with Plasmodium falciparum [16], 82 nM; in the experiment on Plasmodium falciparum [7], 29 nM; in the experiment on Plasmodium falciparum [9] it was 113 nM; in the experiment with Plasmodium falciparum [21], 135 nM; with Plasmodium falciparum [10], 104 nM. In addition, the IC50 in the experiment with Plasmodium falciparum [11] came to 166 nM; with Plasmodium falciparum [12], 45 nM.
